Results from paper PMC9433906, “Evaluation of the biotechnological potential of peptide Cupiennin 1a and analogs” (Frontiers in Microbiology, 2022).
In brackets after ≈: the same amount, converted by molar mass. Where a SMILES comes first, the peptide text is derived from it.

Key:
[1] = test system: methicillin-resistant S. aureus (MRSA 3730592); assay type: cell-based, Staphylococcus aureus; conditions: Methicillin-Resistant S. aureus—MRSA clinical isolate 3730592; 5×10^5 CFU.ml^−1, Mueller-Hinton Broth, 37°C, 24 h, OD 595 nm, biological triplicates
Description: (§1) Susceptibility tests were performed using clinical isolates of Klebsiella pneumoniae carbapenemase (KPC 1410503) and methicillin-resistant S. aureus (MRSA 3730592). Tests were also performed with ATCC (American Type Culture Collection) isolates of K. pneumoniae (ATCC 13883) and S. aureus (ATCC 25923).
(§2) Two multidrug-resistant clinical isolates and two ATCC isolates were chosen to perform microbial susceptibility testing as models for studies with bacteria susceptible to antimicrobials found in the Gram-Positive and Gram-Negative groups of bacteria.
(§3) The broth microdilution method was performed according to the Clinical and Laboratory Standards Institute (CLSI) M07-A10 protocol to determine the Minimum Inhibitory Concentration (MIC; [Clinical Laboratory Standards Institute, 2015]). The assay was performed on 96-well microplates (TPP, United States), containing 5×10^5 CFU.ml^−1 of each tested bacterium per well and different peptide micromolar concentrations (Table 1) in a final volume of 100 μl of Mueller-Hinton Broth (MH). Negative control was represented by bacteria incubated in MH medium, while positive control was represented by culture incubated in MH medium with Amikacin. Plates were kept under agitation at 37°C in a BioTek spectrophotometer (PowerWaveTM HT Microplate Reader) with optical density (OD) readings at 595 nm every 30 min for 24 h. Inhibition results were analyzed using GraphPad Prism 8 software by comparing the OD from negative control wells (100%) to those containing peptides. All tests were performed in biological triplicates.

S. aureus (ATCC 25923) = assay type: cell-based, Staphylococcus aureus; conditions: S. aureus (ATCC25923); 5×10^5 CFU.ml^−1, Mueller-Hinton Broth, 37°C, 24 h, OD 595 nm, biological triplicates
Description: as §1, §2, §3

[2] = test system: K. pneumoniae (ATCC 13883); assay type: cell-based, Klebsiella pneumoniae; conditions: K. pneumoniae (ATCC13883); 5×10^5 CFU.ml^−1, Mueller-Hinton Broth, 37°C, 24 h, OD 595 nm, biological triplicates
Description: as §1, §2, §3

[3] = test system: Spodoptera frugiperda (SF21) cells; test: In vitro test against insect cells (MTT); assay type: cell-based; conditions: lowest concentration tested (1 μM), 24 h
Description: To evaluate the ability of the peptides to cause lysis and morphological changes in insect cells ([Dutra, 2019]; Patent: BR 102022 006138 6) as a first screening of the insecticidal activity of the peptides, in this work, the Spodoptera IPLB-SF-21AE _LVI-Cenargen cell line ([Vaughn et al., 1977]) was used and different concentrations of the peptides were added to the culture medium.
Cells were maintained at 27°C in TNMFH medium (Grace’s insect medium supplemented with lactalbumin hydrolyzate and yeastolate), supplemented with 10% (v/v) fetal bovine serum (Sigma-Aldrich; [Castro et al., 2006]).
Cell cultivation was carried out in 10 ml culture bottles, model K11-1050 25cm^2, with 5 ml of culture medium per bottle. For the assays, the SF21 cells were grown in TNMFH medium, added 10% (v/v) of bovine fetal serum, and distributed in plates of 96 wells at the concentration of 2×10^4 cells per well, after counting was performed in the Neubauer chamber. Cell suspension was distributed in a volume of 100 μl per well. Peptides were diluted in TNMFH medium and 100 μl of medium with peptide was added, obtaining concentrations of 10, 5, and 1 μM, reaching the volume of 200 μl at the final concentrations of reaction per well. Cells were placed in incubation at 27°C, for 24 h.
After 24 h, the cells were analyzed for their modifications, morphological alterations, turbidity of the medium, formation of clumps, and/or lysis in the presence of peptides, by observation under optical microscopy (Nikon Eclipse TS100) with 20× and 40× magnification. Characteristics that could represent cell death or cell dysfunction caused by the peptides were observed compared to control cells. Cells were evaluated by cell viability using the MTT test 3-[4,5-dimethylthiazole-2-yl]-2,5-diphenyltetrazolium bromide 0.5 mg.ml^−1 (Sigma-Aldrich). To perform the test, the cell culture medium was discarded, and we added 100 μl of new medium. Ten μl of MTT was added to each well and incubated for 4 h, with the plates protected from light. After 4 h, we added 100 μl of DMSO to each well to dissolve the formazan crystals, and the reading in the microplate reader ([Riss et al., 2016]) was then performed. The results were analyzed using GraphPad Prism 8 software, where a One-Way ANOVA statistical test was followed by Bonferroni’s multiple comparisons test.

RAW 264.7 cells = test: MTT cytotoxicity test against RAW 264.7; assay type: cell-based, mice; conditions: 24 h
Description: The cell line RAW 264.7 was obtained from the Rio de Janeiro Cell Bank (CR108). These cells are macrophages derived from induced tumors in male BALB/c mice infected with Abelson’s murine leukemia virus ([Raschke et al., 1978]). RAW264.7 cells were grown in DMEM medium (Dulbecco’s Modified Eagle’s medium, composed of CaCl2 (anhydrous) 200 mg.ml^−1, Fe(NO3).9H2O 0.1 mg.ml^−1, KCL 400 mg.ml^−1, MgSO4 (anhydrous) 97.67 mg.ml^−1, NaCL 6.400 mg.ml^−1, NaH2PO4.H2O 125 mg.ml^−1) supplemented with 10% (v/v) of bovine fetal serum, 0.5% (v/v) of DMEM amino acid solution, 0.05% (w/v) gentamicin, 0.5% (w/v) of L-glutamine, and 0.5% (w/v) of penicillin/streptomycin (1,000 U.ml^−1) in an incubator containing 5% CO2, at 37°C, and 95% humidity ([Raschke et al., 1978]; [Nguyen et al., 2017]).
RAW 264.7 cells were seeded in 96-well plates, at a concentration of 10^4 cells/well, and incubated for 24 h. Each peptide was subsequently added at different micromolar concentrations (Table 1). Positive control was performed by cells in culture medium and negative control, as cell culture in lysis solution (10 mM Tris, 1 mM EDTA, and 0.1% Triton X-100, pH 7.4).
Cell viability analyses were performed in technical and biological replicates, and readings were obtained after 24 h of contact with peptides. At the end of the incubation period, MTT (Sigma-Aldrich, United States) was used to assess the ability of living cells to reduce salt 3-[4,5-dimethylthiazole-2-yl]-2,5-diphenyltetrazolium bromide for formazan production. Plates were read at 570 ηm ([Mosmann, 1983]) and results were expressed in the percentage of living cells. The results were analyzed using GraphPad Prism 8 software where a One-Way ANOVA statistical test was followed by Bonferroni’s multiple comparisons test.

[4] = test system: C. parapsilosis (ATCC22019); test: Broth microdilution MIC (CLSI M27-A3 with modifications); assay type: cell-based, Candida parapsilosis; conditions: 2.5 × 10^3 CFU.ml^−1, Sabouraud medium, 24 h at 30°C, absorbance 595 nm
Description: The broth microdilution method was performed according to the Clinical and Laboratory Standards Institute Guideline M27-A3 with modifications to determine the Minimum Inhibitory Concentration (MIC; [Clinical Laboratory Standards Institute, 2008]).
Initially, the fungus C. parapsilosis (ATCC22019) was grown in a Petri dish containing Sabouraud Dextrose Agar medium (Dextrose 40 g/L; Peptic digestion of animal tissue 5.0 g.L^−1; and Agar 15 g.L^−1) for 48 h. Subsequently, a pre-inoculum was performed from a yeast colony that was placed in 10 ml of liquid Sabouraud medium and incubated for 16 h at 28°C, with a constant rotation of 200 rpm. After the incubation period, 2.5 × 10^3 CFU.ml^−1 of fungus per well was incubated with different peptide micromolar concentrations (Table 1) to assess the MIC for each peptide.
Fungal cells incubated with Sabouraud medium were used as negative control, while positive control was represented by fungal cells incubated in Sabouraud medium and amphotericin B (10 μM). Subsequently, plates were incubated for 24 h at 30°C. After this period, the absorbance was read (595 nm) in a BioTek spectrophotometer (PowerWaveTM HT Microplate Reader), and data of antifungal activity with percentage of inhibition of peptides were plotted in GraphPad Prism 8 Software.

[5] = test system: Klebsiella pneumoniae carbapenemase (KPC 1410503); assay type: cell-based; conditions: K. pneumoniae carbapenemase—KPC clinical isolate 1410503; 5×10^5 CFU.ml^−1, Mueller-Hinton Broth, 37°C, 24 h, OD 595 nm, biological triplicates; NE = MIC value not found
Description: as §1, §2, §3

Row | Compound | Minimum inhibitory concentration (MIC) [1] [µM] | Minimum inhibitory concentration (MIC) (S. aureus (ATCC 25923)) [µM] | Minimum inhibitory concentration (MIC) [2] [µM] | cell viability (SF21) [3] | cell viability (RAW264.7) in the MIC found for MRSA3730592, S. aureus ATCC25923, K. pneumoniae ATCC13883 (RAW 264.7 cells; at the MIC of R2b for these strains (17.15 μM in Table 3)) | toxicity against RAW264.7 cells (in words) (RAW 264.7 cells; tested concentrations of Table 1 (128–16 μg.ml^−1)) | Minimum inhibitory concentration (MIC) [4] [µM] | Minimum inhibitory concentration (MIC) [5] [µM] | viable cells (RAW264.7) (RAW 264.7 cells; 33.77 μM) [%] | toxicity to RAW264.7 cells at the MIC concentration (in words) (RAW 264.7 cells; R1b: MIC found for KPC1410503, R3b: MIC at high concentrations against all tested microorganisms) | viable cells (RAW264.7) in the MIC found for MRSA, S. aureus ATCC25923 and C. parapsilosis ATCC22019 (RAW 264.7 cells; at the MIC of R1a for these strains (15.81 μM in Table 3)) [%] | toxicity on RAW264.7 macrophages in the concentration range of 33.77 μM (in words) (RAW 264.7 cells; concentration range of 33.77 μM)
1 | CC(C)C[C@H](NC(=O)[C@H](C)NC(=O)CNC(=O)[C@H](Cc1ccccc1)NC(=O)CN)C(=O)N[C@@H](Cc1ccccc1)C(=O)N[C@@H](CCCCN)C(=O)N[C@@H](Cc1ccccc1)C(=O)N[C@@H](CC(C)C)C(=O)N[C@@H](C)C(=O)N[C@@H](CCCCN)C(=O)N[C@@H](CCCCN)C(=O)N[C@H](C(=O)N[C@@H](C)C(=O)N[C@@H](CCCCN)C(=O)N[C@@H](C)C(=O)N[C@H](C(=O)N[C@@H](C)C(N)=O)C(C)C)C(C)C [Peptide R2b] (H-GFGALFKFLAKKVAKAVA-NH2) | 17.15 (≈ 32 µg/mL) | 17.15 (≈ 32 µg/mL) | 17.15 (≈ 32 µg/mL) | below 50% | above 50% | high toxicity | 34.31 (≈ 64 µg/mL) | 34.31 (≈ 64 µg/mL) | – | – | – | –
2 | CC(C)C[C@H](NC(=O)[C@H](C)NC(=O)CNC(=O)[C@H](Cc1ccccc1)NC(=O)CN)C(=O)N[C@@H](Cc1ccccc1)C(=O)N[C@@H](CCCCN)C(=O)N[C@@H](Cc1ccccc1)C(=O)N[C@@H](CC(C)C)C(=O)N[C@@H](C)C(=O)N[C@@H](CCCCN)C(=O)N[C@@H](CCCCN)C(=O)N[C@H](C(=O)N[C@@H](C)C(=O)N[C@@H](CCCCN)C(=O)N[C@H](C(=O)N[C@H](C(=O)N[C@@H](C)C(N)=O)C(C)C)[C@@H](C)O)C(C)C [Peptide R1b] (H-GFGALFKFLAKKVAKTVA-NH2) | 33.77 (≈ 64 µg/mL) | 33.77 (≈ 64 µg/mL) | 33.77 (≈ 64 µg/mL) | – | – | – | 16.88 (≈ 32 µg/mL) | 67.54 (≈ 128 µg/mL) | 58 | high toxicity | – | –
3 | CC(C)C[C@H](NC(=O)[C@H](C)NC(=O)CNC(=O)[C@H](Cc1ccccc1)NC(=O)CN)C(=O)N[C@@H](Cc1ccccc1)C(=O)N[C@@H](CCCCN)C(=O)N[C@@H](Cc1ccccc1)C(=O)N[C@@H](CC(C)C)C(=O)N[C@@H](C)C(=O)N[C@@H](CCCCN)C(=O)N[C@@H](CCCCN)C(=O)N[C@H](C(=O)N[C@@H](C)C(=O)N[C@@H](CCCCN)C(=O)N[C@H](C(=O)N[C@H](C(=O)N[C@@H](C)C(=O)N[C@@H](CCCCN)C(N)=O)C(C)C)[C@@H](C)O)C(C)C [Peptide R1a] (H-GFGALFKFLAKKVAKTVAK-NH2) | 15.81 (≈ 32 µg/mL) | 15.81 (≈ 32 µg/mL) | 31.63 (≈ 64 µg/mL) | – | – | – | 15.81 (≈ 32 µg/mL) | – | – | – | 63 | high toxicity
